# US7378387B2, “Method of suppressing immune response by reducing intracellular content of glutathione in macrophages and monocytes” (Ajinomoto Co., Inc., priority 1997, dated 2008)
# Tested on: IL-6
# Assay: IL-6 in culture supernatant of macrophage-like cells from rheumatoid arthritis patients (Example 17)
# Type: cell-based, human
# Settings: added at 2 mM
# Protocol: A stimulator was added to 1×10^6 MΦ, and the incubation was conducted at 37° C. for 2 days in a CO2 incubator. After centrifugation, the culture supernatant was collected.
# The amount of IL-6 was determined using IL-6 dependent mouse hybridoma MH60 cells (J. Eur. Immunol., vol. 18, p. 951, 1988). One hundred microliters of the culture supernatant were added to 100 μl of the MH60 cell suspension adjusted to 1×10^5 cells/ml in a 10% FCS-containing RPMI medium, and the mixed solution was incubated at 37° C. for 2 days in a CO2 incubator. Subsequently, 10 μl of MTT (supplied by Sigma Co.) solution adjusted to a concentration of 5 mg/ml in the same medium were added thereto, and the reaction was conducted at 37° C. for 5 hours. After the completion of the reaction, the centrifugation was conducted. The supernatant (160 μl) was removed, and 100 μl of a mixture of hydrochloric acid and propanol were added to the residue. The suspension was conducted using a pipetman to dissolve the cells. Immediately after the dissolution, an absorbance of 570 nm was measured with an immunometer (supplied by Bio-Rad).
# By the same manner as in Example 3, macrophage-like cells were collected from tissues of rheumatoid arthritis patients, and were then suspended and adjusted in a phenol red-free RPMI 1640 culture medium supplemented with 10% fetal calf serum to 3×10^6 cells/ml. […]
smiles,measurement,value
"CCOC(=O)CNC(=O)[C@H](CS)NC(=O)CC[C@H](N)C(=O)O [GSH-OEt, glutathione monoethyl ester]",IL-6 in the culture supernatant of the macrophages,prominently decreased
